US12497610B2, “Functional genomics using CRISPR-CAS systems for saturating mutagenesis of non-coding elements, compositions, methods, libraries and applications thereof” (THE BROAD INSTITUTE, INC., priority 2015, dated 2025)

Test system: human BCL11A erythroid enhancer
Test: Tiled pooled CRISPR-Cas9 screen for in situ functional mapping of the human BCL11A erythroid enhancer (HbF-high/HbF-low sort, sgRNA deep sequencing)
Type: cell-based
Details: for Enrichment Score: HbF enrichment, human library NGG and NGG RC sgRNAs filtered for enrichment score >0.259; for Dropout Score: human library sgRNAs that produced HbF enrichment over 0.259
Excerpt: Every 20-mer sequence upstream of an NGG or NAG PAM sequence on the sense or anti-sense strand was identified for both the human and mouse orthologous +55, +58, and +62 DNase hypersensitive site (DHS) as well as BCL11A/BCL11a exon 2. Relative to the human hg 19 reference genome, a reference was used with the following substitutions to approximate a common low-HbF associated haplotype: rs1427407-G, rs1896293-T, rs6706648-T, rs6738440-G, rs7606173-C. Each of the sgRNA oligos were synthesized as previously described (37,41,64) and cloned using a Gibson Assembly master mix (New England Biolabs) into lentiGuide-Puro (Addgene plasmid ID 52963) BsmBI digested, PCR purified, and dephosphorylated. Gibson Assembly products were transformed to electrocompetent E. cloni cells (Lucigen). Sufficient colonies were isolated to ensure 90X library coverage for both human and mouse libraries. Plasmid libraries were deep sequenced (described below) to confirm representation.
Tiled Pooled CRISPR-Cas9 Screen for In Situ Functional Mapping the Human BCL11A Erythroid Enhancer.
HUDEP clone 2 (HUDEP-2) was utilized as previously described by from Nakamura and colleagues (49). HUDEP-2 cells were expanded in StemSpan SFEM (Stem Cell Technologies) supplemented with 10^−6 M dexamethasone (Sigma), 100 ng/mL human stem cell factor (SCF) (R&D), 3 IU/mL erythropoietin (Amgen), 1% L-glutamine (Life Technologies), and 2% penicillin/streptomycin (Life Technologies). 1 μg/mL doxycycline (Sigma) was included in the culture to induce expression of the human papilloma virus type 16 E6/E7 genes (49). HUDEP-2 cells were differentiated in Iscove's Modified Dulbecco's Medium (IMDM) supplemented with 330 μg/mL halo-transferrin (Sigma), 10 μg/mL recombinant human insulin (Sigma), 2 IU/mL heparin (Sigma), 5% human solvent detergent pooled plasma AB (Rhode Island Blood Center), 3 IU/mL erythropoietin (Amgen), 100 ng/mL human stem cell factor (SCF) (R&D), 1 μg/mL doxycycline (Sigma), 1% L-glutamine (Life Technologies), and 2% penicillin/streptomycin (Life Technologies).
HUDEP-2 cells with stable Cas9 expression were transduced at low multiplicity with the human sgRNA library lentivirus pool while in expansion medium. […] Cell numbers were maintained throughout the experiment at levels adequate to exceed 1000× representation of the library. 10 μg/mL blasticidin (Sigma) and 1 μg/mL puromycin (Sigma) were added 24 hours after transduction to select for lentiviral library integrants in cells with Cas9. Cells were cultured in expansion media for one week followed by differentiation media for an additional week.
Intracellular staining was performed by fixing cells with 0.05% glutaraldehyde (grade II) (Sigma) for 10 minutes at room temperature. Cells were centrifuged for 5 minutes at 350 g and then resuspended in 0.1% Triton-X100 (Life Technologies) for 5 minutes at room temperature for permeabilization. Triton X-100 was diluted with phosphate buffered saline (PBS) and then centrifuged at 350 g for 15 minutes. Cells were stained with anti-human antibodies for HbF (clone HbF-1 with FITC or APC conjugation; Life Technologies) and B-hemoglobin antibody (clone 37-8 with PerCP-Cy5 or PE conjugation; Santa Cruz) for 20 minutes in the dark. Cells were washed to remove unbound antibody prior to FACS analysis. 0.2 μg HbF and 2 μg of HbA CB-hemoglobin) antibodies were used per 5 million cells. Control cells exposed to a nontargeting sgRNA sample and BCL11A exon 2 were used as negative and positive controls respectively to establish flow cytometry conditions. Populations of cells with the top and bottom 10% of expression of HbF were sorted by FACS.
After sorting the HbF-high and HbF-low pools, library preparation and deep sequencing was performed as previously described (37). Briefly, genomic DNA was extracted using the Qiagen Blood and Tissue kit. […]

Substance | Enrichment Score | Dropout Score
BCL_00183_H_D58 (guide AAGAGGCCCCCCTGGGCAAANGG; listed as DNA, chemistry not given here) | 0.7853 | −0.5913
BCL_01828_H_D62 (guide CTCTTCTCCAGGGTGTGGGGNGGRC; listed as DNA, chemistry not given here) | 0.3485 | −0.391
BCL_00087_H_D55 (guide CATTGCATCATCCTGGTACCNGG; listed as DNA, chemistry not given here) | 0.438 | −0.2253
BCL_00210_H_D62 (guide TAAACAGCCACCCCACACCCNGG; listed as DNA, chemistry not given here) | 0.7026 | −0.8705
BCL_00182_H_D58 (guide CTTCCGAAAGAGGCCCCCCTNGG; listed as DNA, chemistry not given here) | 0.2942 | 0.02396
BCL_01794_H_D62 (guide CAGGCATGTATTACCATGCCNGGRC; listed as DNA, chemistry not given here) | 0.2801 | −1.011
BCL_02008_H_exon2 (guide AGGAGGTCATGATCCCCTTCNGGRC; listed as DNA, chemistry not given here) | 0.3495 | −0.4482
BCL_00027_H_D55 (guide CCCATGGAGGTGGGGAGATGNGG; listed as DNA, chemistry not given here) | 0.2823 | −0.4562
BCL_02009_H_exon2 (guide TCCCCTTCTGGAGCTCCCAANGGRC; listed as DNA, chemistry not given here) | 2.108 | −1.693
BCL_00187_H_D58 (guide ATCAGAGGCCAAACCCTTCCNGG; listed as DNA, chemistry not given here) | 2.122 | −0.7444
BCL_00229_H_D62 (guide CCCAGCACTTTGGGAGGCCGNGG; listed as DNA, chemistry not given here) | 0.6113 | −8.717
BCL_01622_H_D58 (guide GAAGGGTTTGGCCTCTGATTNGGRC; listed as DNA, chemistry not given here) | 1.378 | −0.6695
BCL_01800_H_D62 (guide GCCCCGGCCTCCCAAAGTGCNGGRC; listed as DNA, chemistry not given here) | 0.6113 | −7.65
BCL_01618_H_D58 (guide TTGCTTTTATCACAGGCTCCNGGRC; listed as DNA, chemistry not given here) | 0.8561 | −0.8127
BCL_01992_H_exon2 (guide GACCTGGATGCCAACCTCCANGGRC; listed as DNA, chemistry not given here) | 1.234 | −0.6955
BCL_00057_H_D55 (guide GGAAGGGCCTCTATGTAGACNGG; listed as DNA, chemistry not given here) | 0.46 | −0.4451
BCL_00058_H_D55 (guide CCTCTATGTAGACGGGTGTGNGG; listed as DNA, chemistry not given here) | 0.3237 | −0.4848
BCL_01825_H_D62 (guide ATTTGCTCTTCTCCAGGGTGNGGRC; listed as DNA, chemistry not given here) | 0.2818 | −0.3945
BCL_00073_H_D55 (guide AGCACACAAGATGCACACCCNGG; listed as DNA, chemistry not given here) | 0.4199 | −0.8372

Substance | Enrichment Score | Dropout Score
BCL_01640_H_D58 (guide TCGGTGGCCGTTTGCCCAGGNGGRC; listed as DNA, chemistry not given here) | 0.3658 | −1.013
BCL_02007_H_exon2 (guide GGCACTGCCCACAGGTGAGGNGGRC; listed as DNA, chemistry not given here) | 3.351 | −1.662
BCL_02011_H_exon2 (guide CTGGAGCTCCCAACGGGCCGNGGRC; listed as DNA, chemistry not given here) | 0.6044 | 0.7912
BCL_01993_H_exon2 (guide ACCTGGATGCCAACCTCCACNGGRC; listed as DNA, chemistry not given here) | 1.974 | −1.736
BCL_01665_H_D58 (guide TGTAACTAATAAATACCAGGNGGRC; listed as DNA, chemistry not given here) | 0.4418 | −0.6516
BCL_01627_H_D58 (guide TTGGCCTCTGATTAGGGTGGNGGRC; listed as DNA, chemistry not given here) | 0.3054 | −0.2564
BCL_01617_H_D58 (guide CTAACAGTTGCTTTTATCACNGGRC; listed as DNA, chemistry not given here) | 2.495 | −0.7193
BCL_01461_H_D55 (guide GCCCTGCTGGTTATCACTGTNGGRC; listed as DNA, chemistry not given here) | 0.5924 | −0.5115
BCL_01428_H_D55 (guide GAATGTCCCAGGCCAATTCTNGGRC; listed as DNA, chemistry not given here) | 0.4299 | −0.5435
BCL_00135_H_D58 (guide CCATCTCCCTAATCTCCAATNGG; listed as DNA, chemistry not given here) | 0.2985 | −0.04502
BCL_01624_H_D58 (guide GGTTTGGCCTCTGATTAGGGNGGRC; listed as DNA, chemistry not given here) | 1.472 | −0.7713
BCL_01495_H_D55 (guide AGGGAGAAATGAGACAAAAGNGGRC; listed as DNA, chemistry not given here) | 0.2643 | −0.4932
BCL_01638_H_D58 (guide CATCGGTGGCCGTTTGCCCANGGRC; listed as DNA, chemistry not given here) | 0.635 | −0.5928
BCL_00084_H_D55 (guide AGGGTGTGCCCTGAGAAGGTNGG; listed as DNA, chemistry not given here) | 0.311 | −0.3691
BCL_00233_H_D62 (guide CAGGAGGATCACCTGAGGTCNGG; listed as DNA, chemistry not given here) | 0.6113 | −9.202
BCL_00186_H_D58 (guide CACGCCCCCACCCTAATCAGNGG; listed as DNA, chemistry not given here) | 0.8971 | −0.7965
BCL_00051_H_D55 (guide GGAGGTGTGGAGGGGATAACNGG; listed as DNA, chemistry not given here) | 0.3141 | −0.1655
BCL_01619_H_D58 (guide TTTTATCACAGGCTCCAGGANGGRC; listed as DNA, chemistry not given here) | 1.662 | −0.3147
